We go through three compounds from patent EP0884054B9, “Fixed-dose association of an angiotensin-converting enzyme inhibitor and of a calcium channel antagonist for the treatment of cardiovascular illnesses” (Procter & Gamble Pharmaceuticals S.A.R.L., priority 1997, dated 1998).

For series [1], the system named is patients with congestive heart failure. As to conditions: long-term treatment (over one year), cited from earlier work.
For series [2] the following is noted: at 10 minutes; stable formulation of enalapril sodium salt according to EP-A-0545194; cited from earlier work.
Series [3] has as its system male patients with slight-moderate AHT. The experiment in a line: Placebo-controlled open clinical trial in slight-moderate AHT. Format: in vivo. As to conditions: single-drug treatment, 5 mg once a day for 2 weeks (9 patients nitrendipine, 11 patients enalapril). How it is done:
A placebo-controlled, open clinical trial was carried out in male patients with slight-moderate AHT, defined as systolic blood pressure values (SAT) between 165 and 144 mmHg and diastolic blood pressure values (DAT) between 95 and 105 mmHg, taken in decubitus position after 5 minutes' rest.

Series [4] concerns rat experimentally hypertense by aortic coarctation. In words: Antihypertensive activity in the rat experimentally hypertense by aortic coarctation (conscious animal). Format: in vivo. As to conditions: for distolic arterial pressure / systolic arterial pressure / diastolic arterial pressure: mean(SD). How it is done: The antihypertensive activity of the association of enalapril and nitrendipine was tested in comparison with each one of the isolated components in an experimental model of hypertension by arterial coarction in the rat. Measurement of the arterial pressure was carried out with the animal conscious. The doses tested were as follows: • Enalapril maleate 1 mg/kg (p.o.) • Nitrendipine 3 mg/kg (p.o.) • Enalapril maleate and Nitrendipine (1 and 3) mg/kg (p.o.) • Enalapril maleate and Nitrendipine (0.5 and 1.5) mg/kg (p.o.) The control group received the carrier (CMC Carboxymethylcellulose 1% en distilled water), the administration volume being […] (p.o.).

[5] abbreviates: 1 mg/kg p.o., 0 minutes following administration.
[6] abbreviates: 1 mg/kg p.o., 5 minutes following administration.
Setting [7] is: 1 mg/kg p.o., 15 minutes following administration.
[8] abbreviates: 1 mg/kg p.o., 30 minutes following administration.
The mark [9] stands for this setting: 1 mg/kg p.o., 45 minutes following administration.
Where [10] appears, read: 1 mg/kg p.o., 60 minutes following administration.
The mark [11] stands for this setting: 1 mg/kg p.o., 120 minutes following administration.
Where [12] appears, read: 1 mg/kg p.o., 240 minutes following administration.
Where [13] appears, read: 1 mg/kg p.o., 360 minutes following administration.
The mark [14] stands for this setting: 1 mg/kg p.o., 540 minutes following administration.
Setting [15] is: 3 mg/kg p.o., 0 minutes following administration.
Setting [16] is: 3 mg/kg p.o., 5 minutes following administration.
The mark [17] stands for this setting: 3 mg/kg p.o., 15 minutes following administration.
Where [18] appears, read: 3 mg/kg p.o., 30 minutes following administration.
[19] abbreviates: 3 mg/kg p.o., 45 minutes following administration.
[20] abbreviates: 3 mg/kg p.o., 60 minutes following administration.
Setting [21] is: 3 mg/kg p.o., 120 minutes following administration.
[22] abbreviates: 3 mg/kg p.o., 240 minutes following administration.
Setting [23] is: 3 mg/kg p.o., 360 minutes following administration.
[24] abbreviates: 3 mg/kg p.o., 540 minutes following administration.

Counter-ions that a name gives are not always drawn. Like-named read-outs stand apart in the source and are kept apart here.

Turning to `CCOC(=O)[C@H](CCc1ccccc1)N[C@@H](C)C(=O)N1CCC[C@H]1C(=O)O` [enalapril, 1-(N-((S)-1-ethoxycarbonyl-3-fenilpropyl) -L-alanil)-L-prolina], the “improvement of mortality and morbidity rates” value in series [1] (severe heart failure (CONSENSUS)) is “approximately 30%”; in series [1] (slight and moderate heart failure (SOLVD)) it was “approximately 15%”. The “dissolution rate of enalapril” value in series [2] is reported as 100%. Moreover, the “blood pressure normalized, number of patients” value in series [3] is listed as 2 patients. Further, the distolic arterial pressure in series [4] (setting [5]) is listed as 138(5); in series [4] (setting [6]), 138(3); in series [4] (setting [7]), 123(1); in series [4] (setting [8]) it was 116(4); in series [4] (setting [9]), 117(1); in series [4] (setting [10]), 109(1). Further, the distolic arterial pressure in series [4] (setting [11]) is recorded as 116(5); in series [4] (setting [12]) it was 116(3); in series [4] (setting [13]), 117(2); in series [4] (setting [14]) it was 126(4).

Consider `CCOC(=O)[C@H](CCc1ccccc1)N[C@@H](C)C(=O)N1CCC[C@H]1C(=O)O` [Enalapril maleate, 1-(N-((S)-1-ethoxycarbonyl-3-fenilpropyl) -L-alanil)-L-prolina], for which the systolic arterial pressure in series [4] (setting [5]) was 168(6); in series [4] (setting [6]) it was 165(5); in series [4] (setting [7]), 144(2); in series [4] (setting [8]), 139(3); in series [4] (setting [9]) it was 139(6); in series [4] (setting [10]), 134(1). The systolic arterial pressure was 141(3) in series [4] (setting [11]), 146(1) in series [4] (setting [12]), 148(4) in series [4] (setting [13]) and 165(6) in series [4] (setting [14]). For the same compound, the antihypertensive effect entry in series [4] (oral administration, 1 mg/kg) is reported as “moderate antihypertensive effect”. In series [4] (oral administration, 1 mg/kg), the “antihypertensive effect sustained following administration” value is on record as “up to 6 hours”.

Turning to `CCOC(=O)C1=C(C)NC(C)=C(C(=O)OC)C1c1cccc([N+](=O)[O-])c1` (racemic) [Nitrendipine, ethyl and methyl ester of the acid 1,4-dihydro-2,6-dimethyl-4-(3-nitrophenyl)-3,5-pyridindicarboxylic], the “blood pressure normalized, number of patients” value in series [3] is 1 patients. For the same compound, the diastolic arterial pressure is on record as 136(5) in series [4] (setting [15]); 105(1) in series [4] (setting [16]); 83(4) in series [4] (setting [17]); 84(2) in series [4] (setting [18]); 88(5) in series [4] (setting [19]); 92(1) in series [4] (setting [20]). The diastolic arterial pressure in series [4] (setting [21]) is listed as 113(4); in series [4] (setting [22]), 128(3); in series [4] (setting [23]), 132(2); in series [4] (setting [24]), 131(5). Further, the systolic arterial pressure in series [4] (setting [15]) is 172(6); in series [4] (setting [16]), 119(2); in series [4] (setting [17]), 117(6); in series [4] (setting [18]) it was 112(4); in series [4] (setting [19]), 115(3); in series [4] (setting [20]), 119(6). Moreover, the systolic arterial pressure was 141(5) in series [4] (setting [21]), 163(2) in series [4] (setting [22]), 169(1) in series [4] (setting [23]) and 160(5) in series [4] (setting [24]). In addition, the “return to basal values following administration” value in series [4] (oral administration, 3 mg/kg) worked out at 4 h.
